Experimental data as given in patent US20110081315A1, “NOVEL MACROCYCLIC INHIBITORS OF HEPATITIS C VIRUS REPLICATION” (INTERMUNE, INC., priority 2009, published 2011).

Key:
hepatitis C replicon = hepatitis C replicon EC50 assay; assay type: cell-based; conditions: Hepatitis C virus; hepatitis C replicon; read-out: EC50
In short: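 Replicon EC50 determined per a referenced patent protocol; assays run at ambient temperature (23° C.) in 50 mM Tris-HCl pH 7.5 with 15% glycerol, 0.6 mM LDAO, 25 μM NS4A peptide and 10 mM DTT.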

NS3/NS4 complexes = NS3/NS4 complexes (Hepatitis C virus genotype 1a, UniProt P27958); assay: NS3/NS4 inhibition assay (IC50); assay type: biochemical; conditions: NS3/NS4 activity; 23° C., 25 μM NS4A peptide
Sequence of NS3/NS4 complexes (P27958 1027-1657, one chain of several): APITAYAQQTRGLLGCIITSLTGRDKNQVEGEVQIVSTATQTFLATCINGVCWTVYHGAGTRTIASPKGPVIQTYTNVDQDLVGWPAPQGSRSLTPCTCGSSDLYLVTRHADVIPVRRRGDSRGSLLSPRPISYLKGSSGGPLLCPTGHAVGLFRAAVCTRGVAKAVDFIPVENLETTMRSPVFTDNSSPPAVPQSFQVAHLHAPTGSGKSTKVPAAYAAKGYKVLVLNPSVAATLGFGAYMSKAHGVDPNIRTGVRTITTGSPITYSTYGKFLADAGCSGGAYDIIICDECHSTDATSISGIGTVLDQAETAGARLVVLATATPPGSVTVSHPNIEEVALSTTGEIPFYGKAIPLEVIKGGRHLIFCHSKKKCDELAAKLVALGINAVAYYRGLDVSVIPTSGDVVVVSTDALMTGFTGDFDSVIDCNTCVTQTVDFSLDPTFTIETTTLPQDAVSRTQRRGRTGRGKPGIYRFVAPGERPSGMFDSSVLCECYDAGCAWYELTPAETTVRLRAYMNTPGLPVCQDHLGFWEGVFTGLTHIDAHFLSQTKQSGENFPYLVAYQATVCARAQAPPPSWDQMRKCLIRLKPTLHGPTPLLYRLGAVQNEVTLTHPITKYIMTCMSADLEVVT
In short: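 NS3/NS4 protease complexes were formed and compound inhibitory concentrations (IC50) measured at ambient temperature (23° C.) in 50 mM Tris-HCl, pH 7.5, with 15% glycerol, 0.6 mM LDAO, 25 μM NS4A peptide and 10 mM DTT. Replicon EC50 values come from a standard HCV replicon cell assay.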

SMILES | EC50 (hepatitis C replicon) | IC50 (NS3/NS4 complexes)
COc1ccc2c(O[C@@H]3C[C@H]4C(=O)N[C@]5(C(=O)NS(=O)(=O)C6(C)CC6)C[C@H]5/C=C\CCCCC[C@H](Nc5ccccn5)C(=O)N4C3)cc(-c3nc(C(C)C)cs3)nc2c1C [Compound 1002] | < 10 nM | < 10 nM
CC1(S(=O)(=O)NC(=O)[C@@]23C[C@H]2/C=C\CCCCC[C@H](Nc2cccc(F)c2)C(=O)N2C[C@H](O)C[C@H]2C(=O)N3)CC1 [Compound 1003] | 10 to 100 nM | > 100 nM
COc1ccc2c(O[C@@H]3C[C@H]4C(=O)N[C@]5(C(=O)NS(=O)(=O)C6(C)CC6)C[C@H]5/C=C\CCCCC[C@H](Nc5cccc(F)c5)C(=O)N4C3)nc(-c3nc(C(C)C)cs3)cc2c1 [Compound 1004] | 10 to 100 nM | < 10 nM
COc1ccc2c(O[C@@H]3C[C@H]4C(=O)N[C@]5(C(=O)NS(=O)(=O)C6(C)CC6)C[C@H]5/C=C\CCCCC[C@H](Nc5cccc(F)c5)C(=O)N4C3)nc(-c3nc(C(C)C)cs3)cc2c1C [Compound 1005] | > 100 nM | < 10 nM
COc1cnc(O[C@@H]2C[C@H]3C(=O)N[C@]4(C(=O)NS(=O)(=O)C5(C)CC5)C[C@H]4/C=C\CCCCC[C@H](Nc4cccc(F)c4)C(=O)N3C2)c2cc(Cl)ccc12 [Compound 1101] | < 10 nM | < 10 nM
CC(C)c1nc(-c2cccc3c2nc(O[C@@H]2C[C@H]4C(=O)N[C@]5(C(=O)NS(=O)(=O)N(C)C)C[C@H]5/C=C\CCCCC[C@H](NC(=O)OC(C)(C)C)C(=O)N4C2)n3C(C)C)sc1C(C)C [Compound 1201] | > 100 nM | < 10 nM
CCn1c(O[C@@H]2C[C@H]3C(=O)N[C@]4(C(=O)NS(=O)(=O)N(C)C)C[C@H]4/C=C\CCCCC[C@H](NC(=O)OC(C)(C)C)C(=O)N3C2)nc2c(-c3nc(C(C)C)c(C)o3)cccc21 [Compound 1204] | < 10 nM | < 10 nM
Cc1oc(-c2cccc3c2nc(O[C@@H]2C[C@H]4C(=O)N[C@]5(C(=O)NS(=O)(=O)N(C)C)C[C@H]5/C=C\CCCCC[C@H](NC(=O)OC(C)(C)C)C(=O)N4C2)n3C(C)C)nc1C(C)(C)C [Compound 1205] | < 10 nM | < 10 nM
CCCc1nc(-c2cccc3c2nc(O[C@@H]2C[C@H]4C(=O)N[C@]5(C(=O)NS(=O)(=O)N(C)C)C[C@H]5/C=C\CCCCC[C@H](NC(=O)OC(C)(C)C)C(=O)N4C2)n3C(C)C)oc1C [Compound 1206] | < 10 nM | < 10 nM
Cc1sc(-c2cccc3c2nc(O[C@@H]2C[C@H]4C(=O)N[C@]5(C(=O)NS(=O)(=O)N(C)C)C[C@H]5/C=C\CCCCC[C@H](NC(=O)OC(C)(C)C)C(=O)N4C2)n3C(C)C)nc1C(C)(C)C [Compound 1207] | 10 to 100 nM | < 10 nM
Cc1sc(-c2cccc3c2nc(O[C@@H]2C[C@H]4C(=O)N[C@]5(C(=O)NS(=O)(=O)C6(C)CC6)C[C@H]5/C=C\CCCCC[C@H](NC(=O)OC(C)(C)C)C(=O)N4C2)n3C(C)C)nc1C(C)(C)C [Compound 1208] | 10 to 100 nM | < 10 nM
CCCc1nc(-c2cccc3c2nc(O[C@@H]2C[C@H]4C(=O)N[C@]5(C(=O)NS(=O)(=O)N(C)C)C[C@H]5/C=C\CCCCC[C@H](NC(=O)OC(C)(C)C)C(=O)N4C2)n3C(C)C)sc1C [Compound 1209] | < 10 nM | < 10 nM
CCCc1nc(-c2cccc3c2nc(O[C@@H]2C[C@H]4C(=O)N[C@]5(C(=O)NS(=O)(=O)C6(C)CC6)C[C@H]5/C=C\CCCCC[C@H](NC(=O)OC(C)(C)C)C(=O)N4C2)n3C(C)C)sc1C [Compound 1210] | < 10 nM | < 10 nM
CC(C)c1nc(-c2cccc3c2nc(O[C@@H]2C[C@H]4C(=O)N[C@]5(C(=O)NS(=O)(=O)N(C)C)C[C@H]5/C=C\CCCCC[C@H](NC(=O)OC(C)(C)C)C(=O)N4C2)n3C(C)C)oc1C(C)C [Compound 1211] | < 10 nM | < 10 nM
CC(C)c1nc(-c2cccc3c2nc(O[C@@H]2C[C@H]4C(=O)N[C@]5(C(=O)NS(=O)(=O)C6(C)CC6)C[C@H]5/C=C\CCCCC[C@H](NC(=O)OC(C)(C)C)C(=O)N4C2)n3C(C)C)oc1C(C)C [Compound 1212] | < 10 nM | < 10 nM
CC(C)c1nc(-c2cccc3c2nc(O[C@@H]2C[C@H]4C(=O)N[C@]5(C(=O)NS(=O)(=O)C6(C)CC6)C[C@H]5/C=C\CCCCC[C@H](NC(=O)OC(C)(C)C)C(=O)N4C2)n3C(C)C)sc1C(C)C [Compound 1213] | 10 to 100 nM | < 10 nM
Cc1oc(-c2cccc3c2nc(O[C@@H]2C[C@H]4C(=O)N[C@]5(C(=O)NS(=O)(=O)N(C)C)C[C@H]5/C=C\CCCCC[C@H](NC(=O)OC(C)(C)C)C(=O)N4C2)n3C(C)C)nc1Cc1ccccc1 [Compound 1214] | < 10 nM | < 10 nM
Cc1oc(-c2cccc3c2nc(O[C@@H]2C[C@H]4C(=O)N[C@]5(C(=O)NS(=O)(=O)C6(C)CC6)C[C@H]5/C=C\CCCCC[C@H](NC(=O)OC(C)(C)C)C(=O)N4C2)n3C(C)C)nc1Cc1ccccc1 [Compound 1215] | < 10 nM | < 10 nM

SMILES | EC50 (hepatitis C replicon) | IC50 (NS3/NS4 complexes)
Cc1sc(-c2cccc3c2nc(O[C@@H]2C[C@H]4C(=O)N[C@]5(C(=O)NS(=O)(=O)N(C)C)C[C@H]5/C=C\CCCCC[C@H](NC(=O)OC(C)(C)C)C(=O)N4C2)n3C(C)C)nc1Cc1ccccc1 [Compound 1216] | < 10 nM | < 10 nM
Cc1sc(-c2cccc3c2nc(O[C@@H]2C[C@H]4C(=O)N[C@]5(C(=O)NS(=O)(=O)C6(C)CC6)C[C@H]5/C=C\CCCCC[C@H](NC(=O)OC(C)(C)C)C(=O)N4C2)n3C(C)C)nc1Cc1ccccc1 [Compound 1217] | < 10 nM | < 10 nM
CC(C)c1nc(-c2cccc3c2nc(O[C@@H]2C[C@H]4C(=O)N[C@]5(C(=O)NS(=O)(=O)N(C)C)C[C@H]5/C=C\CCCCC[C@H](Nc5ccccc5)C(=O)N4C2)n3C(C)C)sc1C(C)C [Compound 1218] | > 100 nM | < 10 nM
Cc1sc(-c2c(F)ccc3c2nc(O[C@@H]2C[C@H]4C(=O)N[C@]5(C(=O)NS(=O)(=O)N(C)C)C[C@H]5/C=C\CCCCC[C@H](NC(=O)OC(C)(C)C)C(=O)N4C2)n3C(C)C)nc1C(C)C [Compound 1219] | < 10 nM | < 10 nM
Cc1oc(-c2c(F)ccc3c2nc(O[C@@H]2C[C@H]4C(=O)N[C@]5(C(=O)NS(=O)(=O)N(C)C)C[C@H]5/C=C\CCCCC[C@H](NC(=O)OC(C)(C)C)C(=O)N4C2)n3C(C)C)nc1C(C)C [Compound 1220] | < 10 nM | < 10 nM
CC(C)c1csc(NC(=O)c2cccc3c2nc(O[C@@H]2C[C@H]4C(=O)N[C@]5(C(=O)NS(=O)(=O)N(C)C)C[C@H]5/C=C\CCCCC[C@H](NC(=O)OC(C)(C)C)C(=O)N4C2)n3C(C)C)n1 [Compound 1221] | < 10 nM | < 10 nM
CC(C)n1c(O[C@@H]2C[C@H]3C(=O)N[C@]4(C(=O)NS(=O)(=O)N(C)C)C[C@H]4/C=C\CCCCC[C@H](NC(=O)OC(C)(C)C)C(=O)N3C2)nc2c(C(=O)NCc3nccs3)cccc21 [Compound 1222] | < 10 nM | < 10 nM
CCCn1c(O[C@@H]2C[C@H]3C(=O)N[C@]4(C(=O)NS(=O)(=O)N(C)C)C[C@H]4/C=C\CCCCC[C@H](NC(=O)OC(C)(C)C)C(=O)N3C2)nc2ccccc21 [Compound 1223] | < 10 nM | < 10 nM
CCC(C)n1c(O[C@@H]2C[C@H]3C(=O)N[C@]4(C(=O)NS(=O)(=O)N(C)C)C[C@H]4/C=C\CCCCC[C@H](NC(=O)OC(C)(C)C)C(=O)N3C2)nc2ccccc21 (stereo partly drawn) [Compound 1224] | < 10 nM | < 10 nM
Cc1nc2cc(O[C@@H]3C[C@H]4C(=O)N[C@]5(C(=O)NS(=O)(=O)C6(C)CC6)C[C@H]5/C=C\CCCCC[C@H](NC(=O)OC(C)(C)C)C(=O)N4C3)ccc2o1 [Compound 1251] | 10 to 100 nM | < 10 nM
Cc1nc2cc(O[C@@H]3C[C@H]4C(=O)N[C@]5(C(=O)NS(=O)(=O)C6(C)CC6)C[C@H]5/C=C\CCCCC[C@H](Nc5ccccc5)C(=O)N4C3)ccc2o1 [Compound 1252] | 10 to 100 nM | < 10 nM
Cc1nc2cc(O[C@@H]3C[C@H]4C(=O)N[C@]5(C(=O)NS(=O)(=O)N(C)C)C[C@H]5/C=C\CCCCC[C@H](NC(=O)OC(C)(C)C)C(=O)N4C3)ccc2s1 [Compound 1253] | > 100 nM | < 10 nM
CC(C)n1c(O[C@@H]2C[C@H]3C(=O)N[C@]4(C(=O)NS(=O)(=O)C5(C)CC5)C[C@H]4/C=C\CCCCC[C@H](NC(=O)OC(C)(C)C)C(=O)N3C2)nc2c(NS(=O)(=O)Cc3ccccc3)cccc21 [Compound 1401] | < 10 nM | < 10 nM
CC(C)n1c(O[C@@H]2C[C@H]3C(=O)N[C@]4(C(=O)NS(=O)(=O)C5(C)CC5)C[C@H]4/C=C\CCCCC[C@H](NC(=O)OC(C)(C)C)C(=O)N3C2)nc2c(-c3nc(C4CCCC4)cs3)cccc21 [Compound 1402] | < 10 nM | < 10 nM
CC(C)c1csc(-c2cccc3c2nc(O[C@@H]2C[C@H]4C(=O)N[C@]5(C(=O)NS(=O)(=O)C6(C)CC6)C[C@H]5/C=C\CCCCC[C@H](NC(=O)OC(C)(C)C)C(=O)N4C2)n3C(C)C)n1 [Compound 1403] | < 10 nM | < 10 nM
CC(C)c1ccn(-c2cccc3c2nc(O[C@@H]2C[C@H]4C(=O)N[C@]5(C(=O)NS(=O)(=O)C6(C)CC6)C[C@H]5/C=C\CCCCC[C@H](NC(=O)OC(C)(C)C)C(=O)N4C2)n3C(C)C)n1 [Compound 1404] | < 10 nM | < 10 nM
CCNC(=O)Nc1cccc2c1nc(O[C@@H]1C[C@H]3C(=O)N[C@]4(C(=O)NS(=O)(=O)C5(C)CC5)C[C@H]4/C=C\CCCCC[C@H](Nc4ccccc4)C(=O)N3C1)n2C(C)C [Compound 1405] | 10 to 100 nM | < 10 nM
CNC(=O)Nc1cccc2c1nc(O[C@@H]1C[C@H]3C(=O)N[C@]4(C(=O)NS(=O)(=O)C5(C)CC5)C[C@H]4/C=C\CCCCC[C@H](Nc4ccccc4)C(=O)N3C1)n2C(C)C [Compound 1406] | > 100 nM | < 10 nM
